ChEMBL document CHEMBL1142825, “Synthesis and antiviral activity against Coxsackie virus B3 of some novel benzimidazole derivatives” (Bioorg Med Chem Lett, 2005)
Values after ≈ are worked out from the molar mass of the structure shown. Values joined by “and” are separate entries in the source; they are usually repeats but may differ in a detail not shown here. Equal values may be shown once.

Experiments:
Vero [1] = test: Selectivity index (TC50/IC50) against Coxsackie virus B3 in Vero cells; format: functional, Chlorocebus sabaeus
Vero [2] = test: Cytotoxic concentration required to inhibit Vero cell growth by 50%; format: functional, Chlorocebus sabaeus; conditions: for CC50: Chlorocebus sabaeus, Vero, read-out: TC50 (the source's name)
Vero [3] = test: Antiviral activity against Coxsackie virus B3 growth by 50% in Vero cells; format: functional, cell-based, Chlorocebus sabaeus
Vero [4] = test: Antiviral activity against Coxsackie virus B3 growth by 50% in Vero cells:not active; format: functional, cell-based, Chlorocebus sabaeus
[5] = Chlorocebus sabaeus, Vero, read-out: IC50

Row | Structure (SMILES) | SI (Vero [1]) | CC50 (Vero [2]) | IC50 (Vero [3]; [5]) | IC50 (Vero [4]) | TC50 (Vero [2]) | IC50 (Vero [3]; vero)
1 | O=C(Nc1cccc(Br)c1)c1cccc2[nH]c(-c3ccncc3)nc12 | 2 | < 8.24 µg/mL | 4.12 µg/mL (≈ 10.5 µM) | – | – | –
2 | O=C(Nc1ccccc1F)c1cccc2[nH]c(-c3ccncc3)nc12 | – | 12.3 µg/mL (≈ 37 µM) | – | Not Active | – | –
3 | O=C(Nc1ccccc1)c1cccc2[nH]c(-c3cccnc3)nc12 | 9.17 | 10.7 µg/mL (≈ 34.2 µM) | 1.17 µg/mL (≈ 3.72 µM) | – | – | –
4 | O=C(Nc1ccccc1O)c1cccc2[nH]c(-c3ccncc3)nc12 | 4.56 | < 18.5 µg/mL | 4.05 µg/mL (≈ 12.3 µM) | – | – | –
5 | Cc1ccccc1NC(=O)c1cccc2[nH]c(-c3ccncc3)nc12 | 11.48 and 4.81 | – | 2.42 µg/mL (≈ 7.37 µM) | – | <27.8 µg/mL and <10.74 µg/mL | 2.23 µg/mL (≈ 6.79 µM)
6 | O=C(Nc1cccc(O)c1)c1cccc2[nH]c(-c3ccncc3)nc12 | – | < 5.9 µg/mL | – | Not Active | – | –
7 | NC(=O)c1cccc2[nH]c(-c3cccnc3)nc12 | 2.98 | 18.5 µg/mL (≈ 77.6 µM) | 6.2 µg/mL (≈ 26 µM) | – | – | –
8 | O=C(Nc1ccc([N+](=O)[O-])cc1)c1cccc2[nH]c(-c3ccncc3)nc12 | 2.99 | < 55.5 µg/mL | 18.5 µg/mL (≈ 51.5 µM) | – | – | –
9 | O=C(Nc1ccccc1)c1cccc2[nH]c(-c3ccccn3)nc12 | 38.8 | 55.6 µg/mL (≈ 177 µM) | 1.43 µg/mL (≈ 4.55 µM) | – | – | –
10 | O=C(NCCO)c1cccc2[nH]c(-c3ccncc3)nc12 | – | 141 µg/mL (≈ 498 µM) | – | Not Active | – | –
11 | O=C(Nc1ccccc1F)c1cccc2[nH]c(-c3cccnc3)nc12 | 11.4 | 37 µg/mL (≈ 111 µM) | 3.23 µg/mL (≈ 9.72 µM) | – | – | –
12 | O=C(NCCO)c1cccc2[nH]c(-c3cccnc3)nc12 | 7.51 | 192 µg/mL (≈ 682 µM) | 25.6 µg/mL (≈ 90.6 µM) | – | – | –
13 | NC(=O)c1cccc2[nH]c(-c3ccccn3)nc12 | 7.32 | 53.4 µg/mL (≈ 224 µM) | 7.29 µg/mL (≈ 30.6 µM) | – | – | –
14 | O=C(Nc1ccc(Cl)cc1)c1cccc2[nH]c(-c3ccncc3)nc12 | 2.35 | < 20.9 µg/mL | 8.72 µg/mL (≈ 25 µM) | – | – | –
15 | O=C(Nc1ccccc1)c1cccc2[nH]c(-c3ccncc3)nc12 | 4.06 | 15.6 µg/mL (≈ 49.8 µM) | 3.85 µg/mL (≈ 12.2 µM) | – | – | –
16 | O=C(NCCO)c1cccc2[nH]c(-c3ccccn3)nc12 | 4.32 | 160 µg/mL (≈ 567 µM) | 37 µg/mL (≈ 131 µM) | – | – | –
17 | O=C(Nc1ccccc1F)c1cccc2[nH]c(-c3ccccn3)nc12 | 28.3 | 15.3 µg/mL (≈ 46.1 µM) | 0.54 µg/mL (≈ 1.62 µM) | – | – | –
18 | NC(=O)c1ncn([C@@H]2O[C@H](CO)[C@@H](O)[C@H]2O)n1 [RIBAVIRIN] | >2.23 | > 1000 µg/mL | 448 µg/mL (≈ 1830 µM) | – | – | –
